Test results published in the supplement of paper PMC10307832.

Columns and labels:
Test in all cases: relative viability (nuclei count vs DMSO), 5 days (fraction); higher = more cells survive
[1] = compound: O=C(c1cc(Cc2n[nH]c(=O)c3ccccc23)ccc1F)N1CCN(C(=O)C2CC2)CC1 [Olaparib]
How it was run: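 Lung cancer cell lines in 1536-well plates were exposed by pinning to five library-drug doses (not always all listed) √10 apart, following an overnight hold at 37 °C. MetaXpress counted Hoechst-stained nuclei from 4× images taken after 5 days without medium change. Viability is the median ratio of treated-well to vehicle-well nuclei across plates. Plates required control CV below 25% and at least one doubling.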

[2] = compound: C[C@@H](Oc1cc(-c2cnn(C3CCNCC3)c2)cnc1N)c1c(Cl)ccc(F)c1Cl [Crizotinib] + C[C@]1(O)C[C@@H](c2nc(-c3ccc4ccc(-c5ccccc5)nc4c3)c3c(N)nccn32)C1 [Linsitinib] (partner 1 µM)
How it was run: (§1)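 Each reported value is a median over duplicate plates. It expresses relative viability: treated-well nuclei count divided by vehicle-well nuclei count. Lung cancer cell lines in 1536-well plates were dosed by pin tool a day after seeding, alone with one drug or with a fixed anchor-drug dose plus five library-drug doses (not always all listed) in √10 steps, and nuclei were counted after 5 days.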

[3] = compound: C[C@@H](Oc1cc(-c2cnn(C3CCNCC3)c2)cnc1N)c1c(Cl)ccc(F)c1Cl [Crizotinib] + CC(C)C[C@H](NC(=O)[C@H](Cc1ccccc1)NC(=O)c1cnccn1)B(O)O [Bortezomib] (partner 0.002 µM)
How it was run: as §1

| Cell Line | relative viability ([1]; 0.08 µM) | relative viability ([1]; 0.253 µM) | relative viability ([1]; 2.53 µM) | relative viability ([1]; 8 µM) | relative viability ([1]; 8 µM, anchor plate) | relative viability ([2]; first compound 0.01 µM) | relative viability ([2]; first compound 0.1 µM) | relative viability ([2]; first compound 0.3162 µM) | relative viability ([2]; first compound 1 µM) | relative viability ([3]; first compound 0.01 µM) | relative viability ([3]; first compound 0.03162 µM) | relative viability ([3]; first compound 0.3162 µM) | relative viability ([3]; first compound 1 µM) | relative viability ([2]; first compound 0.03162 µM) | relative viability ([3]; first compound 0.1 µM) |
| --- | --- | --- | --- | --- | --- | --- | --- | --- | --- | --- | --- | --- | --- | --- | --- |
| 201T | 1.01 | 0.888 | 0.922 | 1.01 | 0.835 | 1.02 | 1.04 | 1.03 | 1.12 | 1.07 | 1.09 | 1.14 | 1.2 | – | – |
| A549 | 1.13 | 0.875 | 0.898 | 0.681 | 0.361 | 0.527 | 0.52 | – | 0.707 | – | – | – | – | 0.568 | – |
| A-427 | 1.09 | 0.945 | 0.884 | 0.782 | 0.713 | 1.1 | 1.16 | – | 1.1 | 0.91 | 1.03 | – | 0.999 | 1.12 | 0.953 |
| ABC-1 | 1.15 | 0.882 | 0.863 | 0.932 | 0.847 | 0.95 | 1.12 | 1.09 | – | 0.277 | 0.368 | 0.279 | 0.299 | 0.843 | 0.292 |
| BEN | 0.948 | 0.775 | 1.01 | 1.03 | 1.06 | 0.843 | 0.818 | 1.04 | 0.916 | 0.862 | 0.788 | 0.815 | 0.78 | 0.844 | – |
| CAL-12T | 1.21 | 0.966 | 0.976 | 0.888 | 0.706 | 0.753 | 0.708 | 0.748 | – | 0.991 | 1.02 | – | 0.907 | 0.904 | 1.13 |
| COR-L23 | 1.04 | 1.04 | 0.908 | 0.579 | 0.353 | – | 0.844 | 0.802 | 0.925 | 0.927 | 0.9 | 0.989 | 0.96 | 0.876 | 0.915 |
| COR-L 105 | 0.896 | 0.87 | 0.763 | 0.785 | 0.697 | 1.14 | 0.929 | 0.956 | 0.972 | 0.825 | 0.778 | 0.699 | 0.941 | 1 | 0.787 |
| Calu-6 | 1.13 | 0.936 | 0.937 | 0.789 | 0.584 | 0.939 | 0.861 | 0.938 | 0.955 | 0.936 | 0.988 | 0.892 | 0.958 | 1.05 | 1.03 |
| ChaGo-K-1 | 1.05 | 0.925 | 0.906 | 0.788 | 0.422 | – | – | – | – | 0.947 | – | – | 0.96 | – | 1.2 |
| EBC-1 | 1.2 | 0.883 | 0.98 | 0.752 | 0.703 | – | 0.889 | 0.159 | 0.167 | 0.599 | 0.564 | 0.231 | 0.259 | 0.886 | 0.28 |
| EKVX | 1.03 | 0.885 | 0.969 | 1.03 | 0.884 | 1 | 1.02 | 1 | 0.975 | 1.06 | 1.05 | 0.934 | 1.1 | 0.998 | 0.959 |
| EMC-BAC-2 | 1.1 | 0.91 | 1.05 | 0.849 | 0.477 | 0.758 | 0.809 | 0.798 | 0.81 | 1.04 | 1.08 | 1 | 1.03 | 0.834 | 0.997 |
| EPLC-272H | 1.17 | 0.889 | 0.968 | 0.878 | 0.832 | 1.18 | 1.17 | 1.14 | 1.27 | 0.87 | 0.865 | 0.912 | – | 1.11 | 1.03 |
| H3255 | 1.01 | 0.869 | 1.05 | 0.924 | 0.579 | 0.806 | 0.974 | 0.841 | 0.962 | 0.736 | 0.925 | 0.681 | 0.659 | 0.924 | 0.814 |
| HARA | 1.14 | 0.852 | 0.804 | 0.811 | 0.788 | 0.919 | 0.778 | 0.976 | 0.873 | 1.02 | 1.08 | 1.13 | 1.12 | 0.978 | 1.11 |
| HCC-15 | 1.09 | 0.904 | 0.999 | 0.878 | 0.731 | 0.819 | 0.864 | 0.886 | 0.946 | 0.916 | – | 0.826 | 0.891 | 0.934 | 1.06 |
| HCC-44 | 1.04 | 0.949 | 1.02 | 1.08 | 0.963 | 0.646 | 0.595 | 0.704 | 0.719 | 0.903 | 0.751 | 0.773 | 0.952 | 0.721 | 0.936 |
| HCC-78 | 1.1 | 0.836 | 0.953 | 0.861 | 0.831 | 0.489 | 0.459 | 0.433 | 0.372 | 0.437 | 0.466 | 0.399 | 0.447 | 0.529 | 0.472 |
| HCC-366 | 1.05 | 0.988 | 0.943 | 0.862 | 0.352 | 0.64 | 0.649 | – | 0.608 | 1.01 | 1.04 | – | 1.15 | 0.679 | 1.02 |
| HCC-827 | 0.999 | 0.989 | 0.962 | 0.966 | 0.61 | 0.927 | – | 0.946 | 0.958 | 0.887 | 1.06 | 0.999 | 0.931 | 0.931 | 1.14 |
| HOP-62 | 1.08 | 0.984 | 0.997 | 0.722 | 0.384 | 0.81 | 1.1 | 0.956 | 0.816 | 0.822 | 0.788 | 0.523 | 0.584 | 0.946 | 1.03 |
| IA-LM | 1.04 | 0.889 | 0.958 | 0.79 | 0.853 | 0.611 | 0.649 | 0.507 | 0.609 | 0.848 | 0.754 | 0.744 | 0.704 | 0.748 | 0.735 |
